Test system: porcine hair follicles
Assay: Hair growth suppressing effect by organ culture method using porcine hair follicles
Format: cell-based, pig
Settings: for activity at 0.003 % / activity at 3e-05 %: 120 h, day 5 after start of culture with sample-containing medium; for activity at 0.003 %: concentration 0.003%; for activity at 0.01 %: concentration 0.01%; for activity at 3e-05 %: concentration 0.00003%
Procedure: The skin of a pork pig was cut into pieces of appropriate size, and excess fat was removed. For disinfection, the skin pieces were immersed in a Hibitane solution under sterile conditions for 10 to 20 minutes. The thus-disinfected skin pieces were washed several times with D-PBS.
Subsequently, hair follicles were isolated from the thus-treated skin pieces under a stereomicroscope by means of tweezers and a scalpel (FEATHER No. 10), and the hair follicles were placed on William's Medium E (Gibco cat. No. 12551-032) supplemented with penicillin/streptomycin (Gibco cat. No. 15140-122) solution by 10.
The isolated hair follicles were transferred to a 24-well culture plate (one follicle/well) together with the aforementioned culture medium (400 μL), and cultured in an incubator (37° C., 5% CO2) for two days.
Subsequently, compounds synthesized in Example 1 (compounds 2, 6, 7, and 9 to 13) were diluted with the aforementioned culture medium, to thereby prepare sample-containing media. Each of the thus-prepared sample-containing media was used for replacement. Similarly, N,N-dimethylglycine methyl ester (DMG) and 1,8-diaminooctane (1,8-DAO) were diluted with the aforementioned culture medium, to thereby prepare sample-containing media. Each of the thus-prepared sample-containing media was also used for replacement.
The medium for culture of hair follicles was replaced with each of the sample-containing media, and thereafter, replaced with a sample-containing medium every one or two days. At days five or six after the start of culture with the sample-containing medium, the elongation of hair follicles (i.e., elongation of hair) was measured and compared with that of the control in which medium was replaced with only the non-sample-containing medium. The elongation of hair follicles (i.e., elongation of hair) in the control medium was taken as 100%.
The sample concentration of each sample-containing medium was set within a range that the sample is completely dissolved in the medium, and at non-cytotoxic levels which cause no reduction of cell viability with 24-hour addition of the sample to epidermal cells.

[1] = Sus scrofa, read-out: Percent growth of hair follicles (control = 100%)
[2] = Sus scrofa, 144 h, day 6 after start of culture with sample-containing medium, read-out: Percent growth of hair follicles (control = 100%)

SMILES: CCNC(=O)CN(C)C [Compound 6, 2-Dimethylamino-N-Ethyl-Acetamide]
- activity at 0.003 % [1]: 91.6%

SMILES: CN(C)CC(=O)NCCCCCCCCCCCCNC(=O)CN(C)C [Compound 12, 2-Dimethylamino-N-[12-(2-Dimethylamino-Acetylamino)-Dodecyl]-Acetamide]
- activity at 0.003 % [1]: 48.7%

SMILES: CN(C)CC(=O)NCCOCCOCCOCCNC(=O)CN(C)C [Compound 11, 2-Dimethylamino-N-[2-(2-{2-[2-(2-Dimethylamino-Acetylamino)-Ethoxy]-Ethoxy}-Ethoxy)-Ethyl]-Acetamide]
- activity at 0.003 % [1]: 97%

SMILES: CN(C)CC(=O)NCCCCCCCCNC(=O)CN(C)C [Compound 10, 2-Dimethylamino-N-[8-(2-Dimethylamino-Acetylamino)-Octyl]-Acetamide]
- activity at 0.01 % [2]: 54.7%

SMILES: NCCCCCCCCN [1,8-DAO, 1,8-diaminooctane, reference compound]
- activity at 0.03 % (Sus scrofa, 144 h, day 6 after start of culture with sample-containing medium, concentration 0.03%, read-out: Percent growth of hair follicles (control = 100%)): 87.9%

SMILES: CCCCCCCCCCCCNC(=O)C[N+](C)(C)C.[Cl-] [Compound 7, Dodecylcarbamoylmethyltrimethylammonium Chloride]
- activity at 3e-05 % [1]: 42.4%
- suppressive effect on growth of hair follicles (i.e., hair growth), rank among tested compounds (comparison across Tables 1 and 2, compound 7 at 0.000030): highest suppressive effect

SMILES: CCCCCCCCCCCCNC(=O)CN(C)C [Compound 2, 2-Dimethylamino-N-Dodecyl-Acetamide]
- activity at 3e-05 % [1]: 108%

SMILES: CN(C)CC(=O)NCCOCCOCCNC(=O)CN(C)C [Compound 9, 2-Dimethylamino-N-(2-{2-[2-(2-Dimethylamino-Acetylamino)-Ethoxy]-Ethoxy}-Ethyl)-Acetamide]
- activity at 0.01 % [2]: 62.4%

SMILES: CN(C)CC(=O)NCCCCNC(=O)CN(C)C [Compound 13, 2-Dimethylamino-N-[4-(2-Dimethylamino-Acetamino)-Butyl]-Acetamide]
- activity at 0.003 % [1]: 79.1%

Reference: patent US8440717B2, “Hair growth regulating agent” (Kao Corporation, priority 2008, dated 2013)
